Like-named read-outs stand apart in the source and are kept apart here.
Legend:
[1] = test system: Phospholipase A2 from Naja mossambica mossambica; type: biochemical; details: in the presence of PLA2 and EDTA, room temperature (FIG. 3A)
Description: (§1) Methodology: Mixed solutions of 20 nm JR2EC-functionalised gold nanoparticles and 100 nm JR2KC2-loaded liposomes were prepared in accordance with Example 1. Absorption spectra were measured for the solutions under various solution conditions, as discussed below.
(§2) Methodology: JR2KC2 loaded liposomes, carboxyfluorescein (CF)-loaded liposomes and JR2EC-functionalised gold nanoparticles were prepared as described in Example 1. A mixture of PLA2 and chlorpromazine was added to the suspensions of liposomes. The assay response was recorded spectroscopically (in the UV-visible range) after incubating various concentrations of chlorpromazine with PLA2 (7 nM), functionalized gold nanoparticles (0.1 nM) and liposomes (1.4 nM) for 10 minutes at 37° C. For JR2KC2-loaded liposomes, the assay response was measured spectroscopically (in the UV-visible range) by recording spectra in the range 400-800 nm with 2 minute intervals using a Perkin Elmer Lambda 25 Spectrophotometer, and then extracting Δλmax.
(§3) This value was obtained by fitting the data to the monophasic Hill equation: […]

[2] = test system: T1, Phospholipase A2 from Naja mossambica mossambica; type: biochemical
T1 construct: IC50; other: CF-loaded liposomes, PLA2 7 nM, 37° C; other: PLA2 7 nM, gold nanoparticles 0.1 nM, liposomes 1.4 nM, 10 minutes at 37° C., Hill fit of Δλmax; lag time
Description: as §1, §2, §3

[3] = target: T1, Phospholipase A2 from Naja mossambica mossambica; assay: traditional carboxyfluorescein (CF)-based fluorescence assay with CF-loaded liposomes; type: biochemical; details: PLA2 7 nM, 37° C.
Description: Carboxyfluorescein-loaded liposomes were prepared similarly, except that the rehydration solution was 50 mM CF, 20 mM phosphate, adjusted to pH 7 with NaOH. The untrapped dye was removed by filtration on a Sephadex G-25 column with PBS as eluent. The total lipid concentration in all samples was determined using the Stewart assay.^21
Methodology: Liposomes containing 50 mM of carboxyfluorescein were prepared as described in Example 1. The final lipid concentration in the sample was 30 μg/ml. The liposomes were incubated with solutions of PLA2 at a variety of concentrations for 30 minutes. Experiments were performed on a Perkin Elmer fluorimeter with an excitation wavelength of 490 nm and an emission wavelength of 520 nm. […]
as §2, with “A mixture of PLA2 and chlorpromazine was added to the suspensions of liposomes.” left out

PLA2 = details: literature values; read-out: IC50 previously reported; cited from earlier work

With O=C(O)CN(CCN(CC(=O)O)CC(=O)O)CC(=O)O [EDTA, ethylenediaminetetraacetic acid] the “effect on PLA2-induced nanoparticle aggregation” value [1] was “prevented aggregation”.
With CN(C)CCCN1c2ccccc2Sc2ccc(Cl)cc21 [chlorpromazine] the lag time ([2]; 10 μM inhibitor, 7 nM PLA2, about 5 minutes without the inhibitor) was “approximately 15 minutes”, the “concentration of active non-inhibited PLA2 relative to actual PLA2 concentration” value ([2]; 10 μM inhibitor, read from lag time (FIG. 12b)) was “about half” and the IC50 ([2]; PLA2 7 nM, gold nanoparticles 0.1 nM, liposomes 1.4 nM, 10 minutes at 37° C., Hill fit of Δλmax) was 6.5 µM. For the same compound, the IC50 [3] was 10 µM and the IC50 (PLA2) was 10 to 100 µM.
